Each structure is given as a SMILES string.

For test [1], the target named is T1, human orexin type 2 receptor (Homo sapiens, UniProt O43614).
T1 construct: expressed in transfected cells
T1 sequence (O43614 1-444): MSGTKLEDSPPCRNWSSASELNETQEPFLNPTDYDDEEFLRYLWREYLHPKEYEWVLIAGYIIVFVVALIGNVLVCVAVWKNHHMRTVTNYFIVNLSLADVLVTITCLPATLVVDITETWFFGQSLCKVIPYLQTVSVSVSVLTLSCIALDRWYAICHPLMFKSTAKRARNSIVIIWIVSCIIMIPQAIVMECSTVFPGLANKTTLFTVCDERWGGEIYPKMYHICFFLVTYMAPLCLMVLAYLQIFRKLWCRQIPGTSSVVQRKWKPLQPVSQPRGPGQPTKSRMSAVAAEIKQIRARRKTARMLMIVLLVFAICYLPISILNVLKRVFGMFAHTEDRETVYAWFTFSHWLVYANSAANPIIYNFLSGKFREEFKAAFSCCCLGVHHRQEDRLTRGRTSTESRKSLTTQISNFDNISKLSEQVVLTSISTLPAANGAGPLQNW
The test can be described thus: Measurement of orexin type 2 receptor agonist activity (calcium fluorescence, CHO cells forcibly expressing human OX2 receptor). It counts as cell-based. The conditions noted are these: compound at 3 μM, DMSO = 0%, orexin A (human) 10 nM = 100%. Put shortly:
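Agonism measured as Fluo-4 calcium fluorescence in CHO-K1 cells stably expressing human OX2 receptor, loaded 30 min at 37° C then 30 min at room temperature with probenecid. Signal recorded about 2 min 40 sec after compound; activity (%) normalised to DMSO (0%) and 10 nM human orexin A (100%).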

In a further test the test system is cynomolgus monkeys. The test can be described thus: Evaluation of wake-promoting effects in cynomolgus monkeys (EEG/EMG/EOG). It counts as in vivo, cynomolgus monkey. The conditions noted are these: s.c., at ZT12, 4 h after administration. How it is done: The wake-promoting effects were evaluated by measuring the electroencephalogram (EEG), electromyogram (EMG) and electrooculogram (EOG) in cynomolgus monkeys. Under isoflurane anesthesia (1-5%, Pfizer Japan Inc., Tokyo, Japan), male cynomolgus monkeys (2-3 years old, Hamri Co., Ltd., Ibaraki, Japan) were surgically implanted with radio-telemetry transmitters (TL10M3-D70-EEE, Data Sciences International Inc., MN, USA). EEG leads were stereotaxically positioned at the parietal area and secured to the cranium with stainless-steel screws in contact with the dura. […] Bilateral EMG leads were implanted into the back cervical muscles. After the surgery, each monkey was given penicillin (100,000 units/head, i.m., Meiji Seika Pharma Co., Ltd., Tokyo, Japan), buprenorphine (0.02 mg/kg, i.m., Otsuka Pharmaceutical Co., Ltd., Tokyo, Japan) and prednisolone (1 mg/kg, s.c., Kyoritsu Seiyaku Co., Ltd., Tokyo, Japan) daily for one week. After at least a 1-month recovery period in home cages, the monkeys were habituated to the recording chamber (an acrylic cage 60W×55D×75H (cm)) located in a soundproof, electrically shielded room. After confirming that the monkeys slept sufficiently in the experimental room, the cortical EEG, EMG and EOG signals were recorded using Dataquest ART software (Data Sciences International Inc., MN, USA). The signals were semi automatically scored in 20 sec epochs by a sleep scoring system (SleepSign, Kissei Comtec Co., Ltd., Nagano, Japan). This preliminary scoring was visually inspected and corrected if necessary. Test compound (0.1, 0.3, 1 or 10 mg/kg, Table 4) dissolved in a mixed solution containing 5% DMSO, 5% Cremophor EL, 20% PEG400 and 70% soluplus (1% (w/v)), or vehicle (i.e., a mixed solution containing 5% DMSO, 5% Cremophor EL, 20% PEG400 and 70% soluplus (1% (w/v))) was administered subcutaneously (s.c.) to the cynomolgus monkeys at ZT12 in a volume of 0.5 mL/kg in a pre-post design. The EEG, EMG and EOG recordings were performed for 4 h after the compound administration. The time spent in wakefulness for 4 h after administration (% of vehicle treatment) was calculated by using SleepSign.

On to `Cc1ccc2n(c1=O)C(COC1CCC(c3ccccc3)CC1)C(NS(C)(=O)=O)CC2` [Example 6, rel-N-[(3S,4R)-7-methyl-6-oxo-4-({[(1s,4S)-4-phenylcyclohexyl]oxy}methyl)-1,3,4,6-tetrahydro-2H-quinolizin-3-yl]methanesulfonamide], for which the “OX2R agonist activity (3 μM, %)” value in test [1] is 92%. Besides, in the test with cynomolgus monkeys (0.3 mg/kg), the “Wakefulness time (% of vehicle treatment) (Mean, n = 2)” value was 352.87 % of vehicle treatment.
Take `CCC1CCC(OCC2C(NS(C)(=O)=O)CCc3ccc(C)c(=O)n32)CC1` [Example 9, rel-N-[(3S,4R)-4-({[(1s,4S)-4-ethylcyclohexyl]oxy}methyl)-7-methyl-6-oxo-1,3,4,6-tetrahydro-2H-quinolizin-3-yl]methanesulfonamide]: the “OX2R agonist activity (3 μM, %)” value in test [1] is on record as 68%. Also, the “Wakefulness time (% of vehicle treatment) (Mean, n = 2)” value in the test with cynomolgus monkeys (0.3 mg/kg) is on record as 521.43 % of vehicle treatment.
Take `Cc1ccc2n(c1=O)C(COC1CCC(c3ccccc3C(F)(F)F)CC1)C(NS(C)(=O)=O)CC2` [Example 72, rel-N-{(3S,4R)-7-methyl-6-oxo-4-[({(1s,4S)-4-[2-(trifluoromethyl)phenyl]cyclohexyl}oxy)methyl]-1,3,4,6-tetrahydro-2H-quinolizin-3-yl]methanesulfonamide]: the “OX2R agonist activity (3 μM, %)” value in test [1] is 108%.
The same measure, in the same setting: the result for `Cc1ccc2n(c1=O)C(COC1CCC(c3c(F)cccc3F)CC1)C(NS(C)(=O)=O)CC2` [Example 89, rel-N-[(3S,4R)-4-({[(1s,4S)-4-(2,6-difluorophenyl)cyclohexyl]oxy)methyl)-7-methyl-6-oxo-1,3,4,6-tetrahydro-2H-quinolizin-3-yl]methanesulfonamide] reads 89%; that for `COc1ccccc1C1CCC(OCC2C(NS(C)(=O)=O)CCc3ccc(C)c(=O)n32)CC1` [Example 90, rel-N-[(3S,4R)-4-({[(1s,4S)-4-(2-methoxyphenyl)cyclohexyl]oxy}methyl)-7-methyl-6-oxo-1,3,4,6-tetrahydro-2H-quinolizin-3-yl]methanesulfonamide], 87%; that for `CC1CCC(OCC2C(NS(C)(=O)=O)CCc3ccc(C4CC4)c(=O)n32)CC1` [Example 105, rel-N-[(3S,4R)-7-cyclopropyl-4-({[(1s,4S)-4-methylcyclohexyl]oxy)methyl)-6-oxo-1,3,4,6-tetrahydro-2H-quinolizin-3-yl]methanesulfonamide], 84%.
As to `CCC1CCC(OCC2C(NS(C)(=O)=O)CCc3c(Br)cc(C)c(=O)n32)CC1` [Example 106, rel-N-[(3S,4R)-9-bromo-4-({[(1s,4S)-4-ethylcyclohexyl]oxy}methyl)-7-methyl-6-oxo-1,3,4,6-tetrahydro-2H-quinolizin-3-yl]methanesulfonamide], the “OX2R agonist activity (3 μM, %)” value in test [1] worked out at 91%.
For the compound `CCCOC1CCC(OCC2C(NS(C)(=O)=O)CCc3ccc(C)c(=O)n32)CC1` [Example 107, rel-N-[(3S,4R)-7-methyl-6-oxo-4-({[(1s,4S)-4-propoxycyclohexyl]oxy}methyl)-1,3,4,6-tetrahydro-2H-quinolizin-3-yl]methanesulfonamide], the “OX2R agonist activity (3 μM, %)” value in test [1] is 65%.
As for `CCS(=O)(=O)NC1CCc2ccc(C)c(=O)n2C1COC1CCC(C2CC2)CC1` [Example 112, rel-N-[(3S,4R)-4-({[(1s,4S)-4-cyclopropylcyclohexyl]oxy}methyl)-7-methyl-6-oxo-1,3,4,6-tetrahydro-2H-quinolizin-3-yl]ethanesulfonamide], the “OX2R agonist activity (3 μM, %)” value in test [1] came to 94%. In addition, the “Wakefulness time (% of vehicle treatment) (Mean, n = 2)” value with cynomolgus monkeys (0.1 mg/kg) is 671.65 % of vehicle treatment.
On to `Cc1ccc2n(c1=O)C(COC1CCC(C3CC3)CC1)C(NS(=O)(=O)C1CC1)CC2` [Example 113, rel-N-[(3S,4R)-4-({[(1s,4S)-4-cyclopropylcyclohexyl]oxy}methyl)-7-methyl-6-oxo-1,3,4,6-tetrahydro-2H-quinolizin-3-yl]cyclopropanesulfonamide], for which the “OX2R agonist activity (3 μM, %)” value in test [1] stood at 87%. Besides, the “Wakefulness time (% of vehicle treatment) (Mean, n = 2)” value with cynomolgus monkeys (0.1 mg/kg) is 380.66 % of vehicle treatment.
With `Cc1ccc2n(c1=O)C(COC1CCC(OCC3CC3)CC1)C(NS(C)(=O)=O)CC2` [Example 114, rel-N-[(3S,4R)-4-(([(1s,4S)-4-(cyclopropylmethoxy)cyclohexyl]oxy}methyl)-7-methyl-6-oxo-1,3,4,6-tetrahydro-2H-quinolizin-3-yl]methanesulfonamide], the “OX2R agonist activity (3 μM, %)” value in test [1] is listed as 69%.
Same read-out and setting: with `CCC1CCC(OCC2C(NS(C)(=O)=O)CCc3c(C4CC4)cc(C)c(=O)n32)CC1` [Example 115, rel-N-[(3S,4R)-9-cyclopropyl-4-({[(1s,4S)-4-ethylcyclohexyl]oxy)methyl)-7-methyl-6-oxo-1,3,4,6-tetrahydro-2H-quinolizin-3-yl]methanesulfonamide] the figure was 100%; with `CC#CC1CCC(OCC2C(NS(=O)(=O)N(C)C)CCc3ccc(C)c(=O)n32)CC1` [Example 144, rel-N,N-dimethyl-N′-[(3S,4R)-7-methyl-6-oxo-4-({[(1s,4S)-4-(prop-1-yn-1-yl)cyclohexyl]oxy}methyl)-1,3,4,6-tetrahydro-2H-quinolizin-3-yl]sulfuric diamide], 99%.
For `CCOC1CCC(OCC2C(NS(C)(=O)=O)CCc3ccc(C)c(=O)n32)CC1` [Example 145, rel-N-[(3S,4R)-4-({[(1s,4S)-4-ethoxycyclohexyl]oxy}methyl)-7-methyl-6-oxo-1,3,4,6-tetrahydro-2H-quinolizin-3-yl]methanesulfonamide], the “OX2R agonist activity (3 μM, %)” value in test [1] is on record as 96%. Besides, the “Wakefulness time (% of vehicle treatment) (Mean, n = 2)” value in the test on cynomolgus monkeys (10 mg/kg) is on record as 277.67 % of vehicle treatment.
As for `CC#CC1CCC(OCC2C(NS(=O)(=O)CC)CCc3ccc(C)c(=O)n32)CC1` [Example 147, rel-N-[(3S,4R)-7-methyl-6-oxo-4-({[(1s,4S)-4-(prop-1-yn-1-yl)cyclohexyl]oxy}methyl)-1,3,4,6-tetrahydro-2H-quinolizin-3-yl]ethanesulfonamide], in test [1], the “OX2R agonist activity (3 μM, %)” value stood at 99%. In addition, in the test with cynomolgus monkeys (1 mg/kg), the “Wakefulness time (% of vehicle treatment) (Mean, n = 2)” value is recorded as 389.64 % of vehicle treatment.
`CC#CC1CCC(OCC2C(NS(=O)(=O)C3CC3)CCc3ccc(C)c(=O)n32)CC1` [Example 148, rel-N-[(3S,4R)-7-methyl-6-oxo-4-({[(1s,4S)-4-(prop-1-yn-1-yl)cyclohexyl]oxy}methyl)-1,3,4,6-tetrahydro-2H-quinolizin-3-yl]cyclopropanesulfonamide]: in test [1], the “OX2R agonist activity (3 μM, %)” value is given as 97%. In the test on cynomolgus monkeys (1 mg/kg), the “Wakefulness time (% of vehicle treatment) (Mean, n = 2)” value is listed as 324.87 % of vehicle treatment.
Take `CC#CC1CCC(OCC2C(NS(=O)(=O)NC)CCc3ccc(C)c(=O)n32)CC1` [Example 149, rel-N-methyl-N′-[(3S,4R)-7-methyl-6-oxo-4-({[(1s,4S)-4-(prop-1-yn-1-yl)cyclohexyl]oxy}methyl)-1,3,4,6-tetrahydro-2H-quinolizin-3-yl]sulfuric diamide]: the “OX2R agonist activity (3 μM, %)” value in test [1] is recorded as 95%.

The values are drawn from patent publication US12448377B2, “Heterocyclic compound” (Takeda Pharmaceutical Company Limited, priority 2019, dated 2025).
